Reference: US4616038A, “Combination of thienamycin-type antibiotics with dipeptidase inhibitors” (Merck & Co., Inc., priority 1985, dated 1986)
Where two headings read alike, the source gives them in different places.

How the values were obtained:
[1] = Urinary recovery of thienamycin class compound in the mouse; format: in vivo; settings: urine, po, 10 mg/kg; for dose excreted: Total
Protocol: (§1) An in vivo assay is conducted using 34 Charles River CD female mice. Seventeen of the mice are administered 40 mg/kg of the inhibitor 7-(L-2-amino-2-carboxyethylthio)-2-(2,2-dimethylcyclopropanecarboxamido)-2-heptenoic acid subcutaneously, and an additional 40 mg/kg per os. Immediately thereafter they and an additional 17 mice are administered 10 mg/kg of the thienamycin class compoud (±)-[5R,6S]-2-ethylthio-6[(R)-1-hydroxyethyl]-pen-2-em-3-sodiocarboxylate by oral gavage. The level of the latter compound in plasma is tested at 10, 30, 60 and 90 minutes using 3 mice from each group at each time period.
The remaining 5 mice from each group are tested for urinary recovery of the thienamycin class compound with the following results.

[2] = Plasma level of thienamycin class compound in the mouse; format: in vivo; settings: po, 10 mg/kg; for concentration at 0.5 h: 30 minutes; for concentration at 1 h: 60 minutes; for concentration at […]: 90 minutes
Protocol: as §1

[3] = target: T1, renal dipeptidase (E.C.3.4.13.11) (Sus scrofa, UniProt P22412); assay: Inhibition of glycyldehydrophenylalanine (GDP) hydrolysis by renal dipeptidase in vitro; format: biochemical, pig (hog)
T1 construct: solubilized preparation of dipeptidase isolated from hog kidneys; from tissue; host or cells: hog kidney
T1 sequence (P22412 17-409): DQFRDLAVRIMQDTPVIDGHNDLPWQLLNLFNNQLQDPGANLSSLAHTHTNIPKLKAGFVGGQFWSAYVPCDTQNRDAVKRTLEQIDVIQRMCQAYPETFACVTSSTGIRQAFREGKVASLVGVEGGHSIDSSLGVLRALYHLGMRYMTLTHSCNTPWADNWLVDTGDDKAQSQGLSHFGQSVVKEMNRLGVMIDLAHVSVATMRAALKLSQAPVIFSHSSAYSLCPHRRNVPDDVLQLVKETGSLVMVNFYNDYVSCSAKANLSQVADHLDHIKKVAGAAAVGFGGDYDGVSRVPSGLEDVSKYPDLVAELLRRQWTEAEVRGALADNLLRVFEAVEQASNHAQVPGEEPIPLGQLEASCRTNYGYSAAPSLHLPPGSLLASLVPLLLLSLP
Protocol: This measured the ability of compounds to inhibit hydrolysis of glycyldehydrophenylalanine (GDP) by a solubilized preparation of dipeptidase isolated from hog kidneys The procedure is as follows to a 1 ml. system containing 50 mM "MOPS" (3-(N-morpholino)propanesulfonic acid) buffer, pH 7.1, is added 5 μg of lyophilized enzyme, and the test compound at a final concentration of 0.1 mM. After a five minute incubation at 37° C., GDP is added to a final concentration of 0.05 mM. Incubation is continued for 10 minutes, at 37° C. and hydrolysis of GDP is measured by the change in optical density with time at 275 nm. Inhibition of the enzyme is gauged by comparison to a standard run containing no inhibitor and is expressed as the inhibitor binding constant, Ki.
A 1 ml. system of 50 mM "MOPS" buffer, pH 7.1, is used. To this is added 5 μg of the pig renal enzyme and an amount of the test compound to bring its final concentration to 0.1 mM. After a five minute incubation at 37° C., an amount of GDP is added to bring its final concentration to 0.05 mM. The system is again incubated for 10 minutes, at 37° C. Hydrolysis of GDP is measured by its change in optical density with time at 275 nm. Inhibition of the enzyme is gauged by comparison to a standard run containing no inhibitor and is presented as percent inhibition.

[4] = Urinary recovery of thienamycin in the mouse with co-administered inhibitor; format: in vivo; settings: urine
Protocol: In addition to this in vitro screen procedure, an in vivo sreen was followed to measure the test compound's ability to inhibit metabolism as reflected by increase in urinary recovery of thienamycin from the mouse. The procedure involves co-administration of the test compound by the intravenous or subcutaneous route at a dose-rate of 10-100 mg/kg, with 10 mg/kg thienamycin. Thienamycin recovery in the urine over a 4 hour period is then compared with its recovery in a control group to which test compound was not coadministered.
Urinary recovery of thienamycin was measured in all cases with the use of a cylinder or disc diffusion assay, conducted in a manner described in U.S. Pat. No. 3,950,357. This bioassay, with Staphylococcus aureus ATCC 6538 as the test organism, has a useful response range from 0.04 μg/ml to 3.0 μg/ml.
An in vivo assay on the mouse was conducted as follows: 20 g Charles River CD, female mice were injected subcutaneously with the chosen dose of the chemical inhibitor. About two minutes later, the dose of thienamycin was given intravenously. A control of thienamycin above was also conducted. The level of thienamycin in the urine as a % of dose was measured using a bioassay technique. The two test compound numbers are those from Table I. Compound 7 is Z-2-isovaleramido-2-butenoicacid; compound 10 is Z-2-cyclopropylcarboxamido-2-butenoic acid. […]

[5] = 10 mg/kg oral plus inhibitor (40 mg/kg SC + 40 mg/kg per os)
[6] = concentration producing 50% inhibition, substrate GDP 0.05 mM, pH 7.1, 37° C., read-out: Ki

Row | Structure (SMILES) | Ki [3, 6] [µM] | also measured
1 | CCSC1=C(C(=O)O)N2C(=O)[C@H]([C@@H](C)O)[C@H]2S1 (relative stereo) [Thienamycin Class Compound, (±)-[5R,6S]-2-ethylthio-6[(R)-1-hydroxyethyl]-pen-2-em-3-sodiocarboxylate] | – | dose excreted at 1 h [1, 5]: 1.5%; dose excreted at 1 h ([1]; compound alone, 10 mg/kg oral): 1.8%; dose excreted at 3 h [1, 5]: 2.3%; dose excreted at 3 h ([1]; compound alone, 10 mg/kg oral): 0.6%; dose excreted [1, 5]: 3.8%; dose excreted ([1]; compound alone, 10 mg/kg oral): 2.4%; concentration at 10 min [2, 5]: 2600 µg/mL; concentration at 10 min ([2]; compound alone, 10 mg/kg oral): 3100 µg/mL; concentration at 0.5 h [2, 5]: 4800 µg/mL; concentration at 0.5 h ([2]; compound alone, 10 mg/kg oral): 3700 µg/mL; concentration at 1 h [2, 5]: 6100 µg/mL; concentration at 1 h ([2]; compound alone, 10 mg/kg oral): 4400 µg/mL; concentration at […] [2, 5]: 3800 µg/mL; concentration at […] ([2]; compound alone, 10 mg/kg oral): 1800 µg/mL
2 | CC/C=C(\NC(=O)CC(C)C)C(=O)O [Compound 4] | 3.2 | –
3 | C/C=C(\NC(=O)CC(C)CC(C)(C)C)C(=O)O (stereo not drawn) [Compound 5] | 4.4 | –
4 | C/C=C(\NC(=O)C1C(C)C1C)C(=O)O (stereo not drawn) [Compound 6] | 4.6 | –
5 | C/C=C(\NC(=O)C1CCC1)C(=O)O [Compound 8] | 6.2 | –
6 | C/C=C(\NC(=O)CC1CCC1)C(=O)O [Compound 9] | 6.6 | –
7 | C/C=C(\NC(=O)CC(C)CC)C(=O)O (stereo not drawn) [Compound 11] | 10 | –
8 | C[N+](C)(C)CCCCC/C=C(\NC(=O)C1CC1(Cl)Cl)C(=O)[O-] (stereo not drawn) [Compound 13] | 0.18 | –
9 | CC1(C)CC1C(=O)N/C(=C\CCCCSC[C@H](N)C(=O)O)C(=O)O (stereo partly drawn) [Compound 17] | – | Ki [3]: 0.21 µM
10 | C/C=C(\NC(=O)CCCCCCC)C(=O)O [Compound 19, Z-2-octanamido-2-butenoic acid] | 26 | –
11 | C/C=C(\NC(=O)CCC)C(=O)O [Compound 20, Z-2-butyramido-2-butenoic acid] | 30 | –
12 | C/C=C(\NC(=O)CCCC1CCCCC1)C(=O)O [Compound 21] | 30 | –
13 | C/C=C(\NC(=O)CC1CC1)C(=O)O [Compound 22] | 22 | –
14 | C/C=C(\NC(=O)CCCC)C(=O)O [Compound 23, Z-2-valeramido-2-butenoic acid] | 32 | –
15 | C/C=C(\NC(=O)C1CCCC1)C(=O)O [Compound 24] | 30 | –
16 | C/C=C(\NC(=O)CC(C)CCOC)C(=O)O (stereo not drawn) [Compound 34] | 9 | –
17 | C/C=C(\NC(=O)CCCCCBr)C(=O)O [Compound 35] | 19 | –
18 | C/C=C(\NC(=O)CCCc1ccccc1)C(=O)O [Compound 37] | 11 | –
19 | C/C=C(\NC(=O)C1CC1C(C)(C)C)C(=O)O (stereo not drawn) [Compound 38] | 6.5 | –
20 | CCCCC/C=C(\NC(=O)CC(C)C)C(=O)O [Compound 39, Z--isovaleramido-2-octenoic acid] | 2.6 | –
21 | CC(NCCCCC/C=C(\NC(=O)C1CC1(C)C)C(=O)O)P(=O)(O)O (stereo not drawn) [Example 18B] | – | Ki ([3]; Example 18B, unit inferred, read-out: Ki): 0.16 µM
22 | C[C@@H](O)[C@H]1C(=O)N2C(C(=O)O)=C(SCCN)C[C@H]12 [Thienamycin] | – | dose excreted at 4 h ([4]; Table III, THM alone 10 mg/kg IV or SC, read-out: Urinary Recovery of THM, %): 30 ± 5%; dose excreted at 4 h ([4]; Table IV, THM alone 10 mg/kg SC, read-out: Urinary Recovery THM, %): 30 ± 5%
23 | CCCCC/C=C(\NC(=O)[C@H]1CC1(C)C)C(=O)O [dextrorotatory isomer, Z-2-(2,2-dimethylcyclopropanecarboxamido)-2-octenoic acid] | – | activity of resolved isomers ([3]; resolved racemic Z-2-(2,2-dimethylcyclopropanecarboxamido)-2-octenoic acid): The activity resides in the dextrorotatory isomer

Further lines, with some results ahead:

Row | Ki [3, 6] [µM] | Structure (SMILES) | also measured
24 | 1.7 | C/C=C(\NC(=O)C1CC1C)C(=O)O (stereo not drawn) [Compound 3] | –
25 | 1.11 | CC1(C)CC1C(=O)N/C(=C\CCCCC[N+](C)(C)C)C(=O)[O-] (stereo not drawn) [Compound 14] | –
26 | 0.72 | CC(=N)NCCCCC/C=C(\NC(=O)C1CC1(C)C)C(=O)O (stereo not drawn) [Compound 15] | –
27 | 5 | O=C(O)CC/C=C(\NC(=O)C1CC1)C(=O)O [Compound 33] | –
28 | 0.45 | C/C=C(\NC(=O)C1CC1(C)CC)C(=O)O (stereo not drawn) [Compound 40] | –
29 | 0.54 | CC(C)/C=C(\NC(=O)C1CC1(C)C)C(=O)O (stereo not drawn) [Compound 41] | inhibition at 100 µM ([3]; 10^-4 M inhibitor, 0.05 mM GDP, pH 7.1, 37° C.): 98%
30 | 0.86 | C/C=C(\NC(=O)C1CC1(CC)CC)C(=O)O (stereo not drawn) [Compound 42] | –
31 | 1.6 | C/C=C(\NC(=O)C1CC1CC)C(=O)O (stereo not drawn) [Compound 43] | –
32 | 3 | C/C=C(\NC(=O)C1CC1(C)C(C)C)C(=O)O (stereo not drawn) [Compound 44] | –
33 | 0.18 | CC/C=C(\NC(=O)C1CC1(C)C)C(=O)O (stereo not drawn) [Compound 45] | –
34 | 0.62 | CC1(C)CC1C(=O)N/C(=C\c1ccccc1)C(=O)O (stereo not drawn) [Compound 46] | –
35 | 0.11 | CCC/C=C(\NC(=O)C1CC1(C)C)C(=O)O (stereo not drawn) [Compound 47] | –
36 | 0.23 | CC(C)C/C=C(\NC(=O)C1CC1(C)C)C(=O)O (stereo not drawn) [Compound 48] | –
37 | 0.11 | CCCC/C=C(\NC(=O)C1CC1(C)C)C(=O)O (stereo not drawn) [Compound 49] | –
38 | 0.17 | CCCCC/C=C(\NC(=O)C1CC1(C)C)C(=O)O (stereo not drawn) [Compound 50] | –
39 | 0.15 | CC1(C)CC1C(=O)N/C(=C\CC1CCCCC1)C(=O)O (stereo not drawn) [Compound 52] | –
40 | 0.33 | CC1(C)CC1C(=O)N/C(=C\CCc1ccccc1)C(=O)O (stereo not drawn) [Compound 53] | –
41 | 0.12 | CSCC/C=C(\NC(=O)C1CC1(C)C)C(=O)O (stereo not drawn) [Compound 54] | –
42 | 0.5 | CC1(C)CC1C(=O)N/C(=C\CCS(C)(=O)=O)C(=O)O (stereo not drawn) [Compound 55] | –
43 | 0.14 | CCCCCCCCCC/C=C(\NC(=O)C1CC1(C)C)C(=O)O (stereo not drawn) [Compound 58] | –
44 | 0.28 | COCCC/C=C(\NC(=O)C1CC1(C)C)C(=O)O (stereo not drawn) [Compound 60] | –
45 | 0.32 | COCC/C=C(\NC(=O)C1CC1(C)C)C(=O)O (stereo not drawn) [Compound 61] | –
46 | 0.34 | CC(C)(C)C/C=C(\NC(=O)C1CC1(C)C)C(=O)O (stereo not drawn) [Compound 62] | –
47 | 0.15 | CC(C)CC/C=C(\NC(=O)C1CC1(C)C)C(=O)O (stereo not drawn) [Compound 63] | –
48 | 0.08 | CCCCC/C=C(\NC(=O)[C@H]1CC1(C)C)C(=O)O [Compound 66] | –
